Consider 23 molecules from patent publication US20240315993A1, “ANTIPARASITIC COMPOUNDS” (Intervet Inc., priority 2021, published 2024).

For one data set, the system named is Lepeophtheirus salmonis. As to the kind of experiment: Salmon - in vivo efficacy against sea lice using gavage administration. Conditions: 5 mg/kg once by gavage; for therapeutic efficacy against juvenile sea lice (% reduction vs control): day -3 infestation; for therapeutic efficacy against juvenile sea lice (% reduction vs control) / prophylactic efficacy at re-infestation on Day 17 (% reduction vs control): counted around day 28; for therapeutic efficacy against (pre-)adult sea lice (% reduction vs control): day -28 infestation, counted day 7. On the procedure: Salmon (Salmo solar) were treated once orally by gavage at a dose of 5 mg/kg bodyweight per fish (Day 0). As formulation DMSO 5%/fish oil 95% was used. Salmon of the negative control group received only the excipients of the formulation.
The fish were infested with Lepeophtheirus salmonis copepodids twice before treatment (i.e., around day −28 and day −3) and once after treatment (i.e., day 17).
Around day 28 (end of animal phase), fish were euthanized, and lice on each fish were classified ((pre-)adult or juvenile stage) and counted. […] Efficacy is expressed as a % reduction of sea lice in treated groups versus a control group, using the Abbott's formula.

Data set [1] deals with Beet Armyworm (Spodoptera exigua). Conditions: 128-well diet tray, average of eight wells, cited from earlier work; for Test A: Bioassay on BAW, percent mortality rating: Beet Armyworm second instar larvae, 50 μg/cm^2, five to seven days; for Test A: percent mortality of Beet Armyworm (BAW) larvae, rating: 50 μg/cm^2 on artificial diet, second instar larvae, 5-7 days.
The test system of data set [2] is Cabbage Looper (Trichoplusia ni). The note with it: 128-well diet tray, average of eight wells, cited from earlier work; for Test B: Bioassay on CL, percent mortality rating: Cabbage Looper second instar larvae, 50 μg/cm^2, five to seven days; for Test B: percent mortality of Cabbage Looper (CL) larvae, rating: 50 μg/cm^2 on artificial diet, second instar larvae, 5-7 days.

Data set [3] concerns Yellow Fever Mosquito (Aedes aegypti). The note with it: 96-well plate, cited from earlier work; for Test C: Bioassay on Yellow Fever Mosquito, mortality rating: Aedes aegypti larvae about 1 day old, scored after 3 days; for Test C: mortality of Yellow Fever Mosquito larvae, rating: about 1 day-old larvae, graded after 3 days at room temperature.

Regarding `Cc1c(F)cc(NC(=O)C2C(c3cc(Cl)cc(Cl)c3)C2(Cl)Cl)cc1C(=O)Nc1ncc(F)cc1F` (centres unmarked) [Compound 457], in the data set with Lepeophtheirus salmonis, the “therapeutic efficacy against juvenile sea lice (% reduction vs control)” value is given as 100% and the “therapeutic efficacy against (pre-)adult sea lice (% reduction vs control)” value came out at 80%.
Take `O=C(Nc1c(F)cccc1F)c1cc(NC(=O)C2C(c3cc(Cl)cc(Cl)c3)C2(Cl)Cl)ccc1Cl` (centres unmarked) [Compound 458]: in the data set with Lepeophtheirus salmonis, the “prophylactic efficacy at re-infestation on Day 17 (% reduction vs control)” value is given as 80%, the “therapeutic efficacy against juvenile sea lice (% reduction vs control)” value is 100% and the “therapeutic efficacy against (pre-)adult sea lice (% reduction vs control)” value amounted to 100%.
Consider `O=C(Nc1ncc(F)cc1F)c1cc(NC(=O)C2C(c3cc(Cl)cc(Cl)c3)C2(Cl)Cl)cc(F)c1Cl` (centres unmarked) [Compound 464], for which, in the data set with Lepeophtheirus salmonis, the “prophylactic efficacy at re-infestation on Day 17 (% reduction vs control)” value is 100%, the “therapeutic efficacy against juvenile sea lice (% reduction vs control)” value came to 100% and the “therapeutic efficacy against (pre-)adult sea lice (% reduction vs control)” value amounted to 100%.
For `O=C(Nc1ncc(F)cc1F)c1cc(NC(=O)C2C(c3cc(F)c(F)c(F)c3)C2(Cl)Cl)ccc1Cl` (centres unmarked) [Compound 478], in the data set on Lepeophtheirus salmonis, the “therapeutic efficacy against juvenile sea lice (% reduction vs control)” value is reported as 80% and the “therapeutic efficacy against (pre-)adult sea lice (% reduction vs control)” value is 100%.
For `O=C(Nc1ncc(F)cc1F)c1cc(NC(=O)C2C(c3cc(F)c(F)c(F)c3)C2(Cl)Cl)ccc1F` (centres unmarked) [Compound 479], in that order: 80% and 100%.
As to `O=C(Nc1ncc(F)cc1F)c1c(F)ccc(NC(=O)C2C(c3cc(Cl)cc(Cl)c3)C2(Cl)Cl)c1F` (centres unmarked) [Compound 480], in the data set on Lepeophtheirus salmonis, the “therapeutic efficacy against juvenile sea lice (% reduction vs control)” value worked out at 100% and the “therapeutic efficacy against (pre-)adult sea lice (% reduction vs control)” value came to 100%.
As for `O=C(Nc1cncc([N+](=O)[O-])c1)c1cc(NC(=O)C2C(c3ccc(Cl)c(Cl)c3)C2(Cl)Cl)ccc1Cl` (centres unmarked) [c107], in data set [1], the “Test A: Bioassay on BAW, percent mortality rating” value is on record as “A (50-100)”. Further, the “Test B: Bioassay on CL, percent mortality rating” value (“Test B … percent mortality rating” for short) in data set [2] is “A (50-100)”. Besides, the “Test C: Bioassay on Yellow Fever Mosquito, mortality rating” value (“Test C: Bioassay” below) in data set [3] is “A (80-100)”.
With `O=C(Nc1cncc(NO)c1)c1cc(NC(=O)C2C(c3cc(Cl)cc(Cl)c3)C2(Cl)Cl)ccc1Cl` (centres unmarked) [c108], the “Test A: Bioassay on BAW, percent mortality rating” value in data set [1] was “A (50-100)”. The “Test B … percent mortality rating” value in data set [2] is given as “A (50-100)”. In data set [3], the “Test C: Bioassay” value is reported as “A (80-100)”.
Regarding `Nc1cncc(NC(=O)c2cc(NC(=O)C3C(c4cc(Cl)cc(Cl)c4)C3(Cl)Cl)ccc2Cl)c1` (centres unmarked) [c109], in data set [1], the “Test A: Bioassay on BAW, percent mortality rating” value is given as “A (50-100)”. Besides, in data set [2], the “Test B … percent mortality rating” value is “A (50-100)”. Further, the “Test C: Bioassay” value in data set [3] was “A (80-100)”.
As to `O=C(Nc1cncc(NO)c1)c1cc(NC(=O)C2C(c3ccc(Cl)c(Cl)c3)C2(Cl)Cl)ccc1Cl` (centres unmarked) [c110], the “Test A: Bioassay on BAW, percent mortality rating” value in data set [1] is recorded as “A (50-100)”. For the same molecule, the “Test B … percent mortality rating” value in data set [2] is reported as “A (50-100)”. Further, in data set [3], the “Test C: Bioassay” value was “A (80-100)”.
With `Nc1cncc(NC(=O)c2cc(NC(=O)C3C(c4ccc(Cl)c(Cl)c4)C3(Cl)Cl)ccc2Cl)c1` (centres unmarked) [c111], in data set [1], the “Test A: Bioassay on BAW, percent mortality rating” value is “A (50-100)”. Moreover, in data set [2], the “Test B … percent mortality rating” value was “A (50-100)”. Moreover, the “Test C: Bioassay” value in data set [3] is “A (80-100)”.
As to `Cn1ccc2c(NC(=O)c3cc(NC(=O)C4C(c5cc(Cl)cc(Cl)c5)C4(Cl)Cl)ccc3Cl)cccc21` (centres unmarked) [c112], the “Test A: Bioassay on BAW, percent mortality rating” value in data set [1] was “A (50-100)”. Further, the “Test B … percent mortality rating” value in data set [2] is recorded as “A (50-100)”. The “Test C: Bioassay” value in data set [3] is given as “A (80-100)”.
With `Cn1ccc2cccc(NC(=O)c3cc(NC(=O)C4C(c5cc(Cl)cc(Cl)c5)C4(Cl)Cl)ccc3Cl)c21` (centres unmarked) [c113], in data set [1], the “Test A: Bioassay on BAW, percent mortality rating” value was “A (50-100)”. For the same molecule, the “Test B … percent mortality rating” value in data set [2] is reported as “A (50-100)”. In data set [3], the “Test C: Bioassay” value is reported as “A (80-100)”.
As for `Cc1cc(N)ccc1NC(=O)c1cc(NC(=O)C2C(c3ccc(Cl)c(Cl)c3)C2(Cl)Cl)ccc1Cl` (centres unmarked) [c114], in data set [1], the “Test A: Bioassay on BAW, percent mortality rating” value is listed as “A (50-100)”. In data set [2], the “Test B … percent mortality rating” value is on record as “A (50-100)”. Moreover, the “Test C: Bioassay” value in data set [3] was “A (80-100)”.
`COCC(=O)N(C)c1ccc(NC(=O)c2cc(NC(=O)C3C(c4cc(Cl)cc(Cl)c4)C3(Cl)Cl)ccc2Cl)cc1` (centres unmarked) [c115]: the “Test A: percent mortality of Beet Armyworm (BAW) larvae, rating” value (from here on “Test A: percent mortality”) in data set [1] was “A (50-100)”. For the same molecule, the “Test B: percent mortality of Cabbage Looper (CL) larvae, rating” value (“Test B: percent mortality” below) in data set [2] is reported as “A (50-100)”. The “Test C: mortality of Yellow Fever Mosquito larvae, rating” value (shortened to “Test C: mortality”) in data set [3] is reported as “B (More than 0 - Less than 80)”.
Turning to `CNc1ccc(NC(=O)c2cc(NC(=O)C3C(c4cc(Cl)cc(Cl)c4)C3(Cl)Cl)ccc2Cl)cc1C` (centres unmarked) [c116], in data set [1], the “Test A: percent mortality” value is “A (50-100)”. Besides, the “Test B: percent mortality” value in data set [2] was “A (50-100)”. Further, the “Test C: mortality” value in data set [3] is “A (80-100)”.
As to `CC(=O)Nc1ccc(NC(=O)c2cc(NC(=O)C3C(c4ccc(F)c(Cl)c4)C3(Cl)Cl)ccc2Cl)cc1` (centres unmarked) [c117], the “Test A: percent mortality” value in data set [1] is “A (50-100)”. For the same molecule, the “Test B: percent mortality” value in data set [2] is given as “A (50-100)”. Moreover, in data set [3], the “Test C: mortality” value was “A (80-100)”.
Consider `CC(=O)Nc1ccc(NC(=O)c2cc(NC(=O)[C@H]3[C@H](c4ccc(F)c(Cl)c4)C3(Cl)Cl)cc(Cl)c2C)cc1` [c118], for which the “Test A: percent mortality” value in data set [1] was “A (50-100)”. Besides, the “Test B: percent mortality” value in data set [2] is listed as “A (50-100)”. For the same molecule, in data set [3], the “Test C: mortality” value was “A (80-100)”.
Regarding `O=C(Nc1ccccc1)c1cc(NC(=O)[C@H]2[C@H](c3ccc(F)c(Cl)c3)C2(Cl)Cl)cc(C(F)(F)F)c1Cl` [c121], in data set [1], the “Test A: percent mortality” value was “A (50-100)”. The “Test B: percent mortality” value in data set [2] is “A (50-100)”. The “Test C: mortality” value in data set [3] was “A (80-100)”.
As for `O=C(Nc1ccccc1)c1c(Cl)ccc(NC(=O)[C@H]2[C@H](c3ccc(F)c(Cl)c3)C2(Cl)Cl)c1Cl` [c122], in data set [1], the “Test A: percent mortality” value is given as “A (50-100)”. In addition, the “Test B: percent mortality” value in data set [2] is given as “A (50-100)”. Further, the “Test C: mortality” value in data set [3] is “A (80-100)”.
Regarding `Cc1c(N)ccc(NC(=O)c2cc(NC(=O)C3C(c4ccc(F)c(C(F)(F)F)c4)C3(Cl)Cl)ccc2Cl)c1C` (centres unmarked) [c123], in data set [1], the “Test A: percent mortality” value is listed as “A (50-100)”. For the same molecule, the “Test B: percent mortality” value in data set [2] is on record as “A (50-100)”. The “Test C: mortality” value in data set [3] is “A (80-100)”.
`Cc1c(NC(=O)c2cc(NC(=O)C3C(c4ccc(F)c(C(F)(F)F)c4)C3(Cl)Cl)ccc2Cl)ccc(NC(=O)C(F)(F)F)c1C` (centres unmarked) [c124]: the “Test A: percent mortality” value in data set [1] is “A (50-100)”. Further, in data set [2], the “Test B: percent mortality” value was “A (50-100)”. Also, the “Test C: mortality” value in data set [3] was “A (80-100)”.
Turning to `Cc1c(NC(=O)c2cc(NC(=O)C3C(c4ccc(F)c(C(F)(F)F)c4)C3(Cl)Cl)ccc2Cl)cccc1NC(=O)C(F)(F)F` (centres unmarked) [c125], in data set [1], the “Test A: percent mortality” value is given as “A (50-100)”. For the same molecule, the “Test B: percent mortality” value in data set [2] is “A (50-100)”. For the same molecule, the “Test C: mortality” value in data set [3] is on record as “A (80-100)”.
